Assay results as given in PubChem BioAssay AID328 (DTP/NCI, 2004).
Several values for one entry are separate records, joined by “and”; a condition that tells them apart may be missing. Identical values can stand only once. Toxic doses and inconclusive results are not listed. Rule for the calls: active = survival T/C of 150% or more; inactive = T/C below 125% in these data.

Tested on: BDF1 mice, P388 leukemia ip, median survival T/C
Assay: NCI In Vivo Anticancer Drug Screen. Data for tumor model P388 Leukemia (intraperitoneal) in B6D2F1 (BDF1) mice
Conditions: endpoint: median survival time, higher = longer survival
How it was run: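 Mice carrying the transplantable tumour receive compound or vehicle. Survival is followed in each arm, and the treated measure is divided by the vehicle measure.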

[1] = dose: 50.0 mg/kg/injection, schedule: Q01DX009 (ip), vehicle: Klucel (hydroxypropylcellulose) (HPC)
[2] = dose: 100.0 mg/kg/injection, schedule: Q01DX009 (ip), vehicle: Klucel (hydroxypropylcellulose) (HPC)

Measured: T/C

O=c1[nH]c(=O)n(C2CC(O)C(CO)O2)cc1C(F)(F)F (stereo unspecified)
inactive: dose: 62.5 mg/kg/injection, schedule: Q01DX009 (ip), vehicle: Klucel (hydroxypropylcellulose) (HPC) 104 % of control | dose: 125.0 mg/kg/injection, schedule: Q01DX009 (ip), vehicle: Klucel (hydroxypropylcellulose) (HPC) 118 % of control | dose: 250.0 mg/kg/injection, schedule: Q01DX009 (ip), vehicle: Klucel (hydroxypropylcellulose) (HPC) 122 % of control | dose: 500.0 mg/kg/injection, schedule: Q01DX009 (ip), vehicle: Klucel (hydroxypropylcellulose) (HPC) 90 % of control

O=C(CO)Nc1ccc(Br)cc1
inactive: [1] 94 % of control | [2] 104 % of control | dose: 200.0 mg/kg/injection, schedule: Q01DX009 (ip), vehicle: Klucel (hydroxypropylcellulose) (HPC) 86 % of control

CC1CCC2(C)CCC3(C)C(=CCC4C5(C)CCC(OC(=O)c6ccccc6)C(C)(C)C5CCC43C)C2C1C (stereo unspecified)
inactive: dose: 75.0 mg/kg/injection, schedule: Q04DX003 (ip), vehicle: saline with Tween-80 100 % of control | dose: 150.0 mg/kg/injection, schedule: Q04DX003 (ip), vehicle: saline with Tween-80 100 % of control | dose: 300.0 mg/kg/injection, schedule: Q04DX003 (ip), vehicle: saline with Tween-80 105 % of control

O=C1C(=O)c2ccccc2C(O)=C1CC=C(Cl)Cl
inactive: dose: 6.2 mg/kg/injection, schedule: Q01DX005 (ip), vehicle: water 100 % of control | dose: 12.5 mg/kg/injection, schedule: Q01DX001 (ip), vehicle: water 100 % of control | dose: 12.5 mg/kg/injection, schedule: Q01DX005 (ip), vehicle: water 100 % of control | dose: 12.5 mg/kg/injection, schedule: Q01DX010 (ip), vehicle: saline 100 % of control | dose: 12.5 mg/kg/injection, schedule: Q03HX024 (ip), vehicle: water 100 % of control | dose: 12.5 mg/kg/injection, schedule: Q04DX003 (ip), vehicle: water 100 % of control | dose: 12.5 mg/kg/injection, schedule: Q08DX002 (ip), vehicle: water 100 % of control | dose: 25.0 mg/kg/injection, schedule: Q01DX001 (ip), vehicle: water 108 % of control | dose: 25.0 mg/kg/injection, schedule: Q01DX005 (ip), vehicle: water 100 % of control | dose: 25.0 mg/kg/injection, schedule: Q01DX009 (ip), vehicle: water 100 % of control | dose: 25.0 mg/kg/injection, schedule: Q01DX009 (oral), vehicle: water 100 % of control | dose: 25.0 mg/kg/injection, schedule: Q01DX010 (ip), vehicle: saline 87 % of control | dose: 25.0 mg/kg/injection, schedule: Q03HX008 (ip), vehicle: water 100 % of control | dose: 25.0 mg/kg/injection, schedule: Q03HX016 (ip), vehicle: water 109 % of control | dose: 25.0 mg/kg/injection, schedule: Q03HX024 (ip), vehicle: water 100 % of control | dose: 25.0 mg/kg/injection, schedule: Q04DX003 (ip), vehicle: water 100 % of control | dose: 25.0 mg/kg/injection, schedule: Q08DX002 (ip), vehicle: water 109 % of control | dose: 50.0 mg/kg/injection, schedule: Q01DX001 (ip), vehicle: water 108 % of control | dose: 50.0 mg/kg/injection, schedule: Q01DX001 (oral), vehicle: water 108 % of control | dose: 50.0 mg/kg/injection, schedule: Q01DX005 (ip), vehicle: water 100 % of control | dose: 50.0 mg/kg/injection, schedule: Q01DX009 (oral), vehicle: water 100 % of control | dose: 50.0 mg/kg/injection, schedule: Q01DX010 (ip), vehicle: saline 91 % of control | dose: 50.0 mg/kg/injection, schedule: Q01DX010 (oral), vehicle: saline with Tween-80 104 % of control | dose: 50.0 mg/kg/injection, schedule: Q03HX008 (ip), vehicle: water 100 % of control | dose: 50.0 mg/kg/injection, schedule: Q03HX016 (ip), vehicle: water 100 % of control | dose: 50.0 mg/kg/injection, schedule: Q03HX024 (ip), vehicle: water 86 % of control | dose: 50.0 mg/kg/injection, schedule: Q04DX003 (ip), vehicle: water 100 % of control | dose: 50.0 mg/kg/injection, schedule: Q08DX002 (ip), vehicle: water 109 % of control | dose: 75.0 mg/kg/injection, schedule: Q01DX005 (ip), vehicle: water 108 % of control | dose: 75.0 mg/kg/injection, schedule: Q03HX024 (ip), vehicle: water 86 % of control | dose: 75.0 mg/kg/injection, schedule: Q04DX003 (ip), vehicle: water 100 % of control | dose: 100.0 mg/kg/injection, schedule: Q01DX001 (oral), vehicle: water 108 % of control | dose: 100.0 mg/kg/injection, schedule: Q01DX009 (oral), vehicle: water 86 % of control | dose: 100.0 mg/kg/injection, schedule: Q01DX010 (oral), vehicle: saline with Tween-80 108 % of control | dose: 100.0 mg/kg/injection, schedule: Q03HX008 (ip), vehicle: water 100 % of control | dose: 100.0 mg/kg/injection, schedule: Q03HX016 (ip), vehicle: water 100 % of control | dose: 100.0 mg/kg/injection, schedule: Q03HX024 (ip), vehicle: water 100 % of control | dose: 100.0 mg/kg/injection, schedule: Q08DX002 (ip), vehicle: water 109 % of control | dose: 200.0 mg/kg/injection, schedule: Q01DX001 (oral), vehicle: water 100 % of control | dose: 200.0 mg/kg/injection, schedule: Q03HX008 (ip), vehicle: water 109 % of control | dose: 200.0 mg/kg/injection, schedule: Q03HX016 (ip), vehicle: water 100 % of control | dose: 300.0 mg/kg/injection, schedule: Q01DX009 (oral), vehicle: water 91 % of control

C[n+]1c(-c2ccc(Cl)c(Cl)c2)c2cc(N)ccc2c2ccccc21
inactive: dose: 0.78 mg/kg/injection, schedule: Q01DX009 (ip), vehicle: water 107 % of control | dose: 0.78 mg/kg/injection, schedule: Q04DX003 (ip), vehicle: water 100 % of control | dose: 1.56 mg/kg/injection, schedule: Q01DX009 (ip), vehicle: water 114 % of control | dose: 1.56 mg/kg/injection, schedule: Q04DX003 (ip), vehicle: water 100 % of control | dose: 3.12 mg/kg/injection, schedule: Q04DX003 (ip), vehicle: water 106 % of control | dose: 6.25 mg/kg/injection, schedule: Q04DX003 (ip), vehicle: water 106 % of control | dose: 12.5 mg/kg/injection, schedule: Q01DX009 (ip), vehicle: water 109 % of control

CCCCCCCCCCCCCCCCP(=O)(OCCOCCCCCC)OCCOCCCCCC
inactive: dose: 12.5 mg/kg/injection, schedule: Q01DX009 (ip), vehicle: alcohol 105 % of control | dose: 12.5 mg/kg/injection, schedule: Q01DX009 (ip), vehicle: saline 87 % of control | dose: 25.0 mg/kg/injection, schedule: Q01DX009 (ip), vehicle: alcohol 105 % of control | dose: 82.5 mg/kg/injection, schedule: Q01DX001 (ip), vehicle: saline 100 % of control | dose: 165.0 mg/kg/injection, schedule: Q01DX001 (ip), vehicle: saline 100 % of control

C=CCNC(=O)c1ccccc1OCC(=O)O
inactive: dose: 100.0 mg/kg/injection, schedule: Q01DX009 (ip), vehicle: gum acacia 100 % of control | dose: 100.0 mg/kg/injection, schedule: Q04DX003 (ip), vehicle: gum acacia 100 % of control | dose: 200.0 mg/kg/injection, schedule: Q01DX009 (ip), vehicle: gum acacia 95 % of control | dose: 200.0 mg/kg/injection, schedule: Q04DX003 (ip), vehicle: gum acacia 91 % of control | dose: 400.0 mg/kg/injection, schedule: Q01DX009 (ip), vehicle: gum acacia 91 % of control | dose: 400.0 mg/kg/injection, schedule: Q04DX003 (ip), vehicle: gum acacia 108 % of control

CCCCOC(=O)c1[nH]cnc1/N=N\N(C)C
inactive: dose: 12.5 mg/kg/injection, schedule: Q01DX009 (ip), vehicle: Klucel (hydroxypropylcellulose) (HPC) 104 % of control | dose: 25.0 mg/kg/injection, schedule: Q01DX009 (ip), vehicle: Klucel (hydroxypropylcellulose) (HPC) 109 % of control | [1] 104 % of control | [2] 100 % of control | dose: 132.0 mg/kg/injection, schedule: Q04DX003 (ip), vehicle: Klucel (hydroxypropylcellulose) (HPC) 100 % of control and 113 % of control | dose: 200.0 mg/kg/injection, schedule: Q04DX003 (ip), vehicle: Klucel (hydroxypropylcellulose) (HPC) 95 % of control and 113 % of control | dose: 300.0 mg/kg/injection, schedule: Q04DX003 (ip), vehicle: Klucel (hydroxypropylcellulose) (HPC) 109 % of control and 118 % of control

Oc1cc(CN2CCCC2)c(O)cc1CN1CCCC1
inactive: dose: 12.5 mg/kg/injection, schedule: Q01DX009 (ip), vehicle: saline with Tween-80 111 % of control | dose: 25.0 mg/kg/injection, schedule: Q01DX009 (ip), vehicle: saline with Tween-80 106 % of control | dose: 50.0 mg/kg/injection, schedule: Q01DX009 (ip), vehicle: saline with Tween-80 111 % of control | dose: 100.0 mg/kg/injection, schedule: Q01DX009 (ip), vehicle: saline with Tween-80 122 % of control
